Measured values as given in patent US9597318B2, “2-oxothiazole compounds and method of using same for chronic inflammatory disorders” (Avexxin AS, priority 2009, dated 2017).
Read-outs that look alike come from different tables or passages of the source.

Assays:
group IVa PLA2 (cPLA2) = group IVa PLA2 (cPLA2) (Homo sapiens (Human), UniProt P47712); assay: In vitro cPLA2 enzyme activity assay; type: biochemical
Method: Some of the compounds above were tested using an in vitro cPLA2 enzyme activity assay.
Assay for cPLA2 activity was performed by the use of sonicated vesicles of 1-palmitoyl-2-arachidonoyl-sn-glycerol-3-phosphorylcholine (100 μM) containing 100,000 cpm of 1-palmitoyl-2-[1 14C]arachidonoylsn-glycerol-3-phosphorylcholine in 100 mM Hepes, pH 7.5, 80 μM Ca2, 2 mM dithiothreitol, and 0.1 mg/ml BSA as described. Following a […] incubation at 37° C., the reaction was terminated (derived from Wijkander et al). The lower phase was separated by thin layer chromatography, and the spot corresponding to free [1-14C]arachidonic acid was visualized by digital imaging and quantified with a PhosphorImager (Fuji Instruments). The source of cPLA2 enzyme was recombinant overexpression of the human gene for group IVa PLA2 in baculovirus insect cell expression system, as described in Abdullah et al. • Wijkander, J., and Sundler, R. (1991) Eur. J. Biochem. 202, 873-880 • Abdullah, K., et al. (1995) Human cytosolic phospholipase A2 expressed in insect cells is extensively phosphorylated on Ser-505. Biochim Biophys Acta. 1995 May 11; 1244(1):157-64.

PGE2 = assay: PGE2-assay (EIA kit detection); type: cell-based
Method: (§1) The Cell Culture SW982 model cell line at a confluent or spheroid state (Wada Y, 2005) was used since gene expression and generation of proinflammatory cytokines resemble RA-derived synovial fibroblast-like cells.
Samples and controls were slowly thawed and diluted (between 1:1 and 1:2500) in the standard diluent. The maximal dilution was 1:10 for one step. That is why several intermediate dilutions were prepared. In the beginning all values were determined from duplicates. After having minimized technical errors, samples were only analyzed as individuals. All further steps, except for some minor corrections, were performed according to the manufacturer's recommendations as can be found in the manual of the EIA kit. In order to optimize the results, the incubation time of the alkaline phosphatase substrate was prolonged by 15 minutes. During the incubation, the plates were kept in the dark. An example of the arrangements of the samples and controls is illustrated in the appendix. The read-out was carried out with a Multiscan plate reader (Ascent Labsystems) at wavelengths of 414 and 595 nm after 10 seconds shaking at 120 rpm. The corresponding software to obtain the data was the Ascent software for Multiscan, Version 2.4.1.
Data were processed using Microsoft Office Excel 2003 and SigmaPlot 10.0.

SW982 cells = assay: AA release assay in SW982 cells, IL-1B stimulation; type: cell-based; conditions: Homo sapiens
Method: as §1
[…] […] IC50 is evaluated from dose-response inhibitions curves.

[1] = recombinant human group IVa PLA2, vesicle assay, 37° C., read-out: Enzyme Assay IC 50
[2] = read-out: cPLA2 in vitro assay IC50
[3] = 1 h preincubation, IL-1B stimulation, time not given

Chain of group IVa PLA2 (cPLA2) (P47712 whole entry): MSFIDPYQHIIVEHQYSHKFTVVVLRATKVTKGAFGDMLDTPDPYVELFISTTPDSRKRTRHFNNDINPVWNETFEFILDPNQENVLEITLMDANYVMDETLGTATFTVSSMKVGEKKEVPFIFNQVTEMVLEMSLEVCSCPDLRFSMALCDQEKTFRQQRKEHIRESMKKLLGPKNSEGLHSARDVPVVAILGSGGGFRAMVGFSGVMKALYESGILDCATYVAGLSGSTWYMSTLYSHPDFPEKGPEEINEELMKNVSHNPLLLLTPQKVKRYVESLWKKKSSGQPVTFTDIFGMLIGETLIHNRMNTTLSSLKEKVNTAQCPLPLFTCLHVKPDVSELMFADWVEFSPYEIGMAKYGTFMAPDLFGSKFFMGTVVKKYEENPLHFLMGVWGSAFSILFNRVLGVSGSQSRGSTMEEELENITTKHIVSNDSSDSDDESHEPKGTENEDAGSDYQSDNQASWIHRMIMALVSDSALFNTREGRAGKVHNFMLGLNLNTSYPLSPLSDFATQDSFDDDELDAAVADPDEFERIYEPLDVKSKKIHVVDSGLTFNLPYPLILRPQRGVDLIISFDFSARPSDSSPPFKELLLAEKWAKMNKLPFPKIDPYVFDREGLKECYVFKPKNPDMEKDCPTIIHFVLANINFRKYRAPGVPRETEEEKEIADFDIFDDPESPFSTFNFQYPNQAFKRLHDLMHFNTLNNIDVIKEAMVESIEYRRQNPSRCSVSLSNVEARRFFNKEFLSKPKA

IC50 (SW982 cells; [3]) | SMILES | IC50 (group IVa PLA2 (cPLA2); [1]) | IC50 (group IVa PLA2 (cPLA2); [2]) | inhibition at 10 µM (PGE2) | inhibition at 30 µM (PGE2) | other results
– | CCCCCCCCc1ccc(OCCCC(=O)c2nccs2)cc1 [GK154, 4-(4-Octylphenoxy)-1-(thiazol-2-yl)butan-1-one] | 3.65 µM | – | – | – | –
4.9 µM | CCC(=O)c1nc(C(=O)O)cs1 [GK160] | – | 7.2 µM | 12% | 30% | –
5.8 µM | CCCCCCOc1ccc(CCC(=O)c2nccs2)cc1 [GK150, 3-(4-(Hexyloxy)phenyl)-1-(thiazol-2-yl)propan-1-one] | – | – | – | – | –
– | CCCCCCOc1ccc(CCCC(F)C(=O)c2nccs2)cc1 (stereo not drawn) [GK156, 2-Fluoro-5-(4-(hexyloxy)phenyl)-1-(thiazol-2-yl)pentan-1-one] | 3.7 µM | – | – | – | –
1.4 µM | O=C(CCCCc1ccc2ccccc2c1)c1nc2ccccc2s1 [GK181] | – | – | 16.3% | 22.5% | –
– | O=C(CCCCc1ccccc1)c1nccs1 [GK147, 5-Phenyl-1-(thiazol-2-yl)pentan-1-one] | 3.05 µM | – | – | – | –
– | O=C(CCCCc1ccccc1)c1nc2ccccc2s1 [GK159] | – | > 5 µM | 23% | 10% | inhibition at 0.3 µM (PGE2; 0.3 uM): 76%; inhibition at 3 µM (PGE2): 18%; IC50 (SW982 cells; (2 h)): < 2 µM; IC50 (SW982 cells; (4 h)): ~25 µM
– | CCOC(=O)c1csc(C(=O)CCCCc2ccccc2)n1 [GK152, Ethyl 2-(5-phenylpentanoyl)thiazole-4-carboxylate] | – | > 5 µM | 30% | 31% | inhibition at 0.1 µM (PGE2; 0.1 uM): 41%; inhibition at 3 µM (PGE2): 38%; IC50 (SW982 cells; (2 h)): 7.4 µM; IC50 (SW982 cells; (4 h)): > 25 µM
2.8 µM | CCc1ccc(OCC(=O)c2nccs2)cc1 [GK185] | – | 2 µM | – | – | –
